Laboratory results published in ChEMBL document CHEMBL1147817, “Two novel furan derivatives from Phellinus linteus with anti-complement activity” (Bioorg Med Chem Lett, 2006).
pIC50: −log10 of the molar value.

Test: Inhibition of classical pathway of the complement system
Assay type: functional, Homo sapiens

pIC50	SMILES
4.47	CO[C@H]1O[C@@H](C(O)CO)/C(=C/c2ccc(CO)o2)C1=O (stereo partly drawn) [PHELLINUSFURAN A]
4.47	CO[C@H]1O[C@H](C(O)CO)/C(=C/c2ccc(CO)o2)C1=O (stereo partly drawn) [PHELLINUSFURAN B]
3.74	O=C(/C=C/c1ccc(O)c(O)c1)O[C@H](Cc1ccc(O)c(O)c1)C(=O)O [ROSMARINIC ACID]
